Results from patent publication US20240158378A1, “SOLID FORMS OF A 4H-PYRAN-4-ONE STRUCTURED CYP11A1 INHIBITOR” (Orion Corporation, priority 2021, published 2024).
Values belong to the compound of their own block, whether it stands above or below them.

Tests used:
Format in all cases: physicochemical
[1] = Slurry experiment (ageing in solvents, XRPD analysis)
Method: (§1) XRPD measurements were performed with the X-ray powder diffractometer Bruker D8 Advance at room temperature using copper filled X-ray tube (40 kV×40 mA) as the X-ray source, CuKα (λ=1.5418 Å), a fixed 0.6 mm divergence slit, 0.0125 mm Ni filter and a 2.5° primary Soller slit, and a LynxEye 1-dimensional detector with a 2.5° secondary Soller slit. Data collection was done in 0.02° steps at a scan speed of 0.3°/s, in the range of 3-33° 2θ.
Samples of 20 mg of crystalline form 5 (water content 0.3-0.6) of compound (I) were dispensed in 300 μl of various solvents defined in Table 13 at room temperature (RT) or at 40° C. under magnetic stirring (600-1000 rpm). The resulting suspensions were aged for 1 week at the respective temperatures. After the ageing period the samples were recovered, air-dried at RT and analyzed by XRPD.

[2] = Storage at room temperature in a closed container, re-analysis by XRPD; settings: two weeks
Method: as §1
Crystalline form 4 of compound (I) was stored at room temperature in a closed container.

[3] = Grinding with water in a ball mill, XRPD analysis; settings: 25-30 mg ground with 80 μl of water, Retsch ball mill, 1.5 h, 30 Hz
Method: as §1
25-30 mg of crystalline form 3 of compound (I) was ground with 80 μl of water using a Retsch ball mill. Water addition was done in two steps, with total grinding time of 1.5 h and v=30 Hz.

- solid form after ageing of the suspension (XRPD) ([1]; 20 mg in 300 μl of the solvents of Table 13, RT or 40° C., magnetic stirring, aged for 1 week): crystalline form 5 (water content 0.3)
Structure (SMILES): CS(=O)(=O)N1CCC(COc2coc(CN3Cc4ccccc4C3)cc2=O)CC1 [2-(isoindolin-2-ylmethyl)-5-((1-(methylsulfonyl)piperidin-4-yl)methoxy)-4H-pyran-4-one]

Structure (SMILES): CS(=O)(=O)N1CCC(COc2coc(CN3Cc4ccccc4C3)cc2=O)CC1 [Crystalline form 4, 2-(isoindolin-2-ylmethyl)-5-((1-(methylsulfonyl)piperidin-4-yl)methoxy)-4H-pyran-4-one]
- solid form after storage (XRPD) [2]: mixture of crystalline form 4 and crystalline form 3

- solid form after grinding with water (XRPD) [3]: crystalline form 2
Structure (SMILES): CS(=O)(=O)N1CCC(COc2coc(CN3Cc4ccccc4C3)cc2=O)CC1 [crystalline form 3, 2-(isoindolin-2-ylmethyl)-5-((1-(methylsulfonyl)piperidin-4-yl)methoxy)-4H-pyran-4-one]

Structure (SMILES): CS(=O)(=O)N1CCC(COc2coc(CN3Cc4ccccc4C3)cc2=O)CC1 [form 5, 2-(isoindolin-2-ylmethyl)-5-((1-(methylsulfonyl)piperidin-4-yl)methoxy)-4H-pyran-4-one]
- solid form stability in slurry ([1]; suspensions in the solvents of Table 13, 1 week, RT or 40° C.): stable in conditions with lower water activity
